Calls of active or inactive are those of the source. The calls are words filed in the database; no cut-off is given here.
How the values were obtained:
[1] = tested on: Protein cereblon/Epidermal growth factor receptor (Homo sapiens), P00533+Q96SW2 [L858R,T790M,C797S]; test: PROTAC activity at CRBN/EGFR L858R/T790M/C797S mutant in human H1975-TM cells assessed as induction of EGFR degradation by measuring remaining activity at 50 nM preincubated with MG132 for 6 hrs followed by compound addition and measured after 24 hrs by Western blot analysis (reference value: 100%); assay type: cell-based
[2] = molecular target: Protein cereblon/Epidermal growth factor receptor (Homo sapiens, UniProt P00533+Q96SW2, T790M/L858R); test: (§1) PROTAC activity at CRBN/EGFR L858R/T790M mutant in human NCI-H1975 cells assessed as induction of EGFR degradation incubated for 24 hrs by Western blot analysis; assay type: cell-based
[3] = tested on: Protein cereblon/Epidermal growth factor receptor (Homo sapiens), P00533+Q96SW2 [L858R,T790M]; test: as §1; assay type: cell-based
H1975-TM = test: Antitumor activity against human H1975-TM cells xenografted in BALB/c nude mouse assessed as decrease in tumor cell proliferation at 25 to 100 mg/kg, po administered once daily for 31 days by Ki67 staining based light microscopic analysis; assay type: functional, organism-based; settings: dose 25-100 mg/kg, time 31.0 day
[4] = AUC (0 to infinity) in male Sprague-Dawley rat at 5 mg/kg, iv measured after 24 hrs by LC-MS/MS analysis; assay type: ADME, organism-based; settings: in vivo
[5] = molecular target: T1, Protein cereblon/Epidermal growth factor receptor (Homo sapiens, UniProt P00533+Q96SW2); test: (§2) PROTAC activity at CRBN/EGFR exon 19 deletion/T790M/C797S mutant in human PC-9-TM cells assessed as induction of EGFR degradation incubated for 24 hrs by Western blot analysis; assay type: cell-based
[6] = tested on: Protein cereblon/Epidermal growth factor receptor (Homo sapiens), P00533+Q96SW2 [UNDEFINED MUTATION]; test: as §2; assay type: cell-based
PC-9 = test: Antiproliferative activity against human PC-9 cells harboring EGFR exon 19 deletion mutant assessed as inhibition of cell proliferation incubated for 72 hrs by CCK8 assay; assay type: functional, cell-based; settings: PC-9, 72 h
[7] = Tmax in male Sprague-Dawley rat at 50 mg/kg, po measured after 24 hrs by LC-MS/MS analysis; assay type: ADME, organism-based; settings: in vivo
[8] = tested on: Protein cereblon/Epidermal growth factor receptor (Homo sapiens), P00533+Q96SW2 [L858R,T790M,C797S]; test: PROTAC activity at CRBN/EGFR L858R/T790M/C797S mutant in human H1975-TM cells assessed as induction of EGFR degradation by measuring remaining activity at 100 nM preincubated for 24 hrs followed by compound washout and measured after 24 hrs by Western blot analysis (reference value: 100%); assay type: cell-based
[9] = Cmax in male Sprague-Dawley rat at 50 mg/kg, po measured after 24 hrs by LC-MS/MS analysis; assay type: ADME, organism-based; settings: in vivo
[10] = tested on: Protein cereblon/Epidermal growth factor receptor (Homo sapiens), P00533+Q96SW2 [L858R,T790M,C797S]; test: PROTAC activity at CRBN/EGFR L858R/T790M/C797S mutant in human H1975-TM cells assessed as induction of EGFR degradation by measuring remaining activity at 100 nM incubated for 3 hrs by Western blot analysis (reference value: 100%); assay type: cell-based
[11] = Toxicity in BALB/c nude mouse xenografted with human H1975-TM cells assessed as liver lesions at 25 to 100 mg/kg, po administered once daily for 31 days by Hematoxylin and eosin staining based analysis; assay type: organism-based; settings: in vivo, 744 h, dose 25-100 mg/kg, time 31 day
[12] = Antiproliferative activity against human HI975-TM cells harboring EGFR L858R/T790M/C797S mutant assessed as inhibition of cell growth incubated for 72 hrs by CCK-8 assay; assay type: functional, cell-based; settings: H1975-TM
[13] = tested on: Protein cereblon/Epidermal growth factor receptor (Homo sapiens), P00533+Q96SW2 [L858R,T790M,C797S]; test: PROTAC activity at CRBN/EGFR L858R/T790M/C797S mutant in human H1975-TM cells assessed as induction of EGFR degradation by measuring remaining activity at 50 nM incubated for 24 hrs by Western blot analysis (reference value: 100%); assay type: cell-based
[14] = molecular target: T1, Protein cereblon/Epidermal growth factor receptor; test: PROTAC activity at CRBN/wildtype EGFR in human A549 cells assessed as induction of EGFR degradation incubated for 24 hrs by Western blot analysis; assay type: cell-based
[15] = tested on: Protein cereblon/Epidermal growth factor receptor (Homo sapiens), P00533+Q96SW2 [L858R,T790M,C797S]; test: PROTAC activity at CRBN/EGFR L858R/T790M/C797S mutant in human H1975-TM cells assessed as induction of EGFR degradation by measuring remaining activity at 100 nM incubated for 6 hrs by Western blot analysis (reference value: 100%); assay type: cell-based
[16] = molecular target: Epidermal growth factor receptor (Homo sapiens) (UniProt P00533); test: Inhibition of EGFR signaling in human H1975-TM cells harboring EGFR L858R/T790M/C797S mutant assessed as reduction in AKT activation by Western blot analysis; assay type: cell-based; settings: dose 1.2-300 nM

## CCS(=O)(=O)n1cc(-c2nc(Nc3ccc(N4CCN(CCCCCCC(=O)Nc5cccc6c5CN(C5CCC(=O)NC5=O)C6=O)CC4)cc3)ncc2C(F)(F)F)c2ccccc21 (stereo not drawn)
[1]
  Activity: 73.6%
[2]
  DC50: 88.5 nM
[3]
  Activity: Dose-Dependent Effect
H1975-TM
  Activity: Active
[4]
  AUC(0-inf): 1800 ng·h/mL
[5]
  DC50: 36.5 nM
[6]
  Activity: Dose-Dependent Effect
PC-9
  IC50: 17.5 nM
[7]
  Tmax: 5.7 h
[8]
  Activity: 52.9%
[9]
  Cmax: 57.8 ng/mL
[10]
  Activity: 75.7%
[11]
  Activity: Non-Toxic
[12]
  IC50: 10.3 nM
[13]
  Activity: 5.8%
[14]
  DC50: > 300 nM
[15]
  Activity: 65.9%
[16]
  inhibition: Dose-Dependent Effect

— ChEMBL document CHEMBL5543167, “Design, Synthesis, and Biological Evaluation of Novel EGFR PROTACs Targeting C797S Mutation” (J Med Chem, 2024)
